Results published in patent publication US20070134744A1, “Epothilone resistant cell lines” (priority 2000, published 2007).
“Also recorded” adds a separate entry of the source. Blank lines part the entries; values can stand above or below the compound they belong to.

What was measured:
EA10 cells = test: MTS growth inhibition assay; type: cell-based; conditions: MTS, 72 hours drug, Table 1
Procedure: (§1) Growth inhibition may be analyzed using conventional methods, for example a MTS assay (PROMEGA, Wis.) may be used. In this assay approximately 4000 cells per well are seeded in 96 well plates in MEM supplemented with 10% fetal calf serum and incubated at 37° C. in 5.0% CO2. After 24 hours, dilutions of drug (concentration range used is between 1 nM and 1000 nM) are added and cells are allowed to incubate with drug for an additional 72 hours. The MTS reagent mixed with PMS (MTS:PMS 20:1 according to manufacturer's instructions) is then added and absorbance quantitated using a Thermomax microplate reader system according to conventional methods (Molecular Devices, Sunnyvale, Calif.). […] Six assays per drug per plate are performed.
(§2) Thus, at least two potential mechanisms of epothilone A resistance may exist—a lower resistance mechanism that is cross-resistant to TAXOL® and a higher, epothilone A specific resistance mechanism.

EA150 cells = test: MTS growth inhibition assay; type: cell-based; conditions: for IC50: MTS, 72 hours drug, Table 1
Procedure: as §1, §2

EA20 cells [1] = test: MTS growth inhibition assay; type: cell-based; conditions: MTS, 72 hours drug, Table 1
Procedure: as §1, §2

EA60 cells = test: MTS growth inhibition assay; type: cell-based; conditions: MTS, 72 hours drug, Table 1
Procedure: as §1, §2

MDA-MB-435 cells = test: MTS growth inhibition assay; type: cell-based
Procedure: as §1, §2

EA40 cells = test: MTS growth inhibition assay; type: cell-based; conditions: for IC50: EA40 cells
Procedure: as §1, with “performed. […]” for “performed.”
(§3) As such, epothilone resistant cells would have some degree of cross-resistance to other P-gp substrates that could be reversed by P-gp inhibitors. To investigate this possibility, the cytotoxicity of the P-gp substrates, vincristine, doxorubicine and vinblastine is determined against epothilone A resistant cells using the MTS assay. […] When EA20 and resistant MDA/T0.3 cells are incubated with TAXOL® or epothilone A in the presence of [3′-Desoxy-3′-oxo-MeBmt]^1-[Val]^2-Ciclosporin (PSC-833; a P-gp inhibitor which is disclosed in U.S. Pat. No. 5,525,590), the resistance of MDA/T0.3 cells to TAXOL® is reversed but no effect on the resistance of EA20 to epothilone A is observed.

KB-8511 cells [2] = type: cell-based, human; conditions: for RF (resistance factor: IC50 resistant cell line / IC50 parental KB-31): KB-8511 (Colch selected), 72 hrs, average of three experiments; for resistance profile in words: KB-8511 vs parental KB-31
Procedure: (§4) Data in Table 4 are gathered according to the following methods: Cells (1×10^3) are seeded in 96-well plates and allowed to adhere for 24 hrs. Compounds are then added as two-fold serial dilutions and incubation continued for an additional 72 hrs. Cell numbers at the beginning and at the end of the experiment are estimated by methylene blue staining of cellular protein mass according to conventional methods. The net mass increase of vehicle-treated cells is set as 100% growth. The IC50 is determined as the drug concentration that leads to half-maximal growth inhibition compared to the control. The resistance factor (RF) for a particular drug is calculated by dividing the IC50 determined on the resistant cell line by that determined on the parental KB-31 cells. Data are presented as average±standard deviation (SD) of three separate experiments, except na=not applicable (n<3). Colchicine-selected KB-8511 cells overexpressing P-glycoprotein served as a reference for the classical multi-drug-resistant phenotype.

297/C5/0 cells = type: cell-based, human; conditions: for RF (resistance factor: IC50 resistant cell line / IC50 parental KB-31): 297/C5/0 (EpoA selected), 72 hrs, average of three experiments; for resistance profile in words: 297/C5/0 vs parental KB-31
Procedure: (§5) Anti-proliferative assays are performed basically as described (Meyer et al., Int. J. Cancer 43:851 (1989)). Briefly, cells are seeded at 1.5×10^3 cells/well into 96-well microtiter plates and allowed to adhere by incubation overnight. Compounds are added in serial dilutions on day 1. The plates are then incubated for an additional 3 days, after which the cells are fixed with 3.3% v/v glutaraldehyde, washed with water and stained with 0.05% w/v methylene blue according to conventional methods. After washing, the dye is eluted with 3% HCl and the optical density measured at 665 nm with a SpectraMax Plus (Molecular Devices, Sunnyvale, Calif.) according to manufacturers instructions. IC50 values are determined by mathematical curve-fitting using the SoftPro2.6.1 program (Molecular Devices, Sunnyvale, Calif.) using the formula (OD treated−OD start)/(OD control−OD start)×100. […] IC50 determinations with the cell line 298/D4/40 are performed in the presence of 40 nM epothilone A.
as §4

298/D4/40 cells [3] = type: cell-based, human; conditions: for RF (resistance factor: IC50 resistant cell line / IC50 parental KB-31): 298/D4/40 (EpoA selected), 72 hrs, in the presence of 40 nM epothilone A; for resistance profile in words: 298/D4/40 vs parental KB-31
Procedure: as §5, §4

315/sc5.9 cells = type: cell-based, human; conditions: for RF (resistance factor: IC50 resistant cell line / IC50 parental KB-31): 315/sc5.9 (EpoB selected), 72 hrs, average of three experiments
Procedure: as §5, §4

298/D4/40 cells [4] = test: Support of growth of epothilone A-dependent cells; type: cell-based, human; conditions: replacing epothilone A
Procedure: The epothilone resistant cell lines, EpoA320-80C, EpoA320/ND, 298/D4/40, 297/C5/0 and 315/sc5.9 are generated as disclosed above. […] A subclone, 298/D4/40, is adapted to grow in the presence of 40 nM epothilone A administered twice weekly (i.e. at every medium change). […] Furthermore, when 298/D4/40 cells are deprived of epothilone A, they growth arrest in the G2/M phase of the cell cycle and eventually die by apoptosis. […] Thus, this cell line could be employed in a drug screen, in which compounds with a potential microtubule-stabilizing mechanism could be identified by virtue of supporting the growth of epothilone A-deprived 298/D4/40 cells (see below). Nevertheless, upon prolonged incubation in the absence of epothilone A, we are able to isolate a subline that is still partially resistant to epothilone A, but has lost the drug-dependent phenotype of 298/D4/40, likely due to a cornpensating mutation. A subclone of this cell line, 297/C5/0, is used for further analyses.
Potential hits would be those that support the growth of 298/D4/40 cells similar to epothilone A (or paclitaxel) that could be included as a positive control in this assay.

EA20 cells [5] = test: Reversal of resistance by P-gp inhibitor (MTS assay); type: cell-based; conditions: EA20 cells incubated with epothilone A in the presence of PSC-833
Procedure: as §1
(§6) As such, epothilone resistant cells would have some degree of cross-resistance to other P-gp substrates that could be reversed by P-gp inhibitors. To investigate this possibility, the cytotoxicity of the P-gp substrates, vincristine, doxorubicine and vinblastine is determined against epothilone A resistant cells using the MTS assay. […]

MDA/T0.3 cells [6] = test: as above; type: cell-based; conditions: MDA/T0.3 cells incubated with TAXOL in the presence of PSC-833
Procedure: as §1, §6

MDA/T0.3 cells [7] = test: MTS growth inhibition assay; type: cell-based; conditions: MDA/T0.3 cells, P-gp substrates; Table 2; read-out: IC50
Procedure: as §1, with “After 24 hours, dilutions of drug (concentration range used is between 1 nM and 1000 nM) are added and cells are allowed to incubate with drug for an additional 72 hours.” left out
as §3
MDA/T0.3 is a clonal subline of MDA-MB-435 cells selected by increasing exposure of MDA-MB-435 cells to TAXOL®. MDA/T0.3 cells express high levels of P-glycoprotein and are resistant to a variety of chemically and functionally unrelated compounds. MDA/T0.3 cells could be sensitized to a variety of cytotoxic agents by treatment with the P-glycoprotein reversing agent PSC-833.

KB-8511 cells [8] = conditions: cited from earlier work

SMILES: C/C(=C\c1csc(C)n1)[C@@H]1C[C@@H]2O[C@]2(C)CCC[C@H](C)[C@H](O)[C@@H](C)C(=O)C(C)(C)[C@@H](O)CC(=O)O1 [Epothilone B, epothilone B]
IC50 (EA10 cells): 3 ± 1.4 nM
resistance profile in words (EA150 cells): very little resistance
IC50 (EA150 cells): 15 ± 3.1 nM
IC50 (EA20 cells [1]): 6 ± 2.9 nM
IC50 (EA60 cells): 10 ± 4.2 nM
IC50 (MDA-MB-435 cells; MTS, 72 hours drug, Table 1): 2 ± 0.8 nM
IC50 (EA40 cells; MTS, 72 hours drug, Table 1): 8 ± 3.5 nM
RF (resistance factor: IC50 resistant cell line / IC50 parental KB-31) (KB-8511 cells [2]): 0.9
resistance profile in words (KB-8511 cells [2]): retain full activity
RF (resistance factor: IC50 resistant cell line / IC50 parental KB-31) (297/C5/0 cells): 7.7
resistance profile in words (297/C5/0 cells): either partially or fully cross-resistant
RF (resistance factor: IC50 resistant cell line / IC50 parental KB-31) (298/D4/40 cells [3]): 9.2
resistance profile in words (298/D4/40 cells [3]): either partially or fully cross-resistant
RF (resistance factor: IC50 resistant cell line / IC50 parental KB-31) (315/sc5.9 cells): 3.1
resistance (315/sc5.9 cells; 315/sc5.9 vs parental KB-31): 3.1 fold
support of growth of epothilone A-dependent cell line (298/D4/40 cells [4]): able to substitute for epothilone A

SMILES: C/C=C/C[C@@H](C)C(=O)[C@H]1C(=O)N[C@@H](C(C)C)C(=O)N(C)CC(=O)N(C)[C@@H](CC(C)C)C(=O)N[C@@H](C(C)C)C(=O)N(C)[C@@H](CC(C)C)C(=O)N[C@@H](C)C(=O)N[C@H](C)C(=O)N(C)[C@@H](CC(C)C)C(=O)N(C)[C@@H](CC(C)C)C(=O)N(C)[C@@H](C(C)C)C(=O)N1C [PSC-833, [3′-Desoxy-3′-oxo-MeBmt]^1-[Val]^2-Ciclosporin]
effect on resistance to epothilone A (EA20 cells [5]): no effect
effect on resistance to TAXOL (MDA/T0.3 cells [6]): reversed

IC50 (MDA-MB-435 cells; Homo sapiens, MTS, 72 hours drug, Table 1): 7.5 ± 3 nM
IC50 (MDA-MB-435 cells; Homo sapiens, P-gp substrates, Table 2): 7.5 ± 3 nM
SMILES: CC(=O)O[C@H]1C(=O)[C@@]2(C)[C@H]([C@H](OC(=O)c3ccccc3)[C@]3(O)C[C@H](OC(=O)[C@H](O)[C@@H](NC(=O)c4ccccc4)c4ccccc4)C(C)=C1C3(C)C)[C@]1(OC(C)=O)CO[C@@H]1C[C@@H]2O [Paclitaxel, paclitaxel]
IC50 (EA10 cells): 13 ± 3.1 nM
IC50 (EA150 cells): 34 ± 2.6 nM
IC50 (EA20 cells [1]): 22 ± 4 nM
IC50 (EA60 cells): 27 ± 3.1 nM
IC50 (EA40 cells; MTS, 72 hours drug, Table 1): 23 ± 4 nM
IC50 (EA40 cells; P-gp substrates, Table 2): 21 ± 3 nM
resistance profile in words (EA40 cells; EA40 vs MDA-MB-435 / EA150): equally resistant
IC50 (MDA/T0.3 cells [7]): 540 ± 100 nM
RF (resistance factor: IC50 resistant cell line / IC50 parental KB-31) (KB-8511 cells [2]): 209.6
resistance profile in words (KB-8511 cells [2]): resistant
RF (resistance factor: IC50 resistant cell line / IC50 parental KB-31) (297/C5/0 cells): 98.3
resistance profile in words (297/C5/0 cells): either partially or fully cross-resistant; also recorded: full cross-resistance
RF (resistance factor: IC50 resistant cell line / IC50 parental KB-31) (298/D4/40 cells [3]): 200.1
resistance profile in words (298/D4/40 cells [3]): either partially or fully cross-resistant; also recorded: full cross-resistance
RF (resistance factor: IC50 resistant cell line / IC50 parental KB-31) (315/sc5.9 cells): 1.4
resistance profile in words (315/sc5.9 cells; 315/sc5.9 vs parental KB-31): marginal cross-resistance
support of growth of epothilone A-dependent cell line (298/D4/40 cells [4]): able to substitute for epothilone A

SMILES: COc1cc2c(c(OC)c1OC)-c1ccc(OC)c(=O)cc1[C@@H](NC(C)=O)CC2 [colchicine]
relative resistance compared to KB-31 cells (KB-8511 cells [8]): ~40 fold
